Results as given in patent US20230103965A1, “NOVEL ACTIVATORS OF THE LIPIDATING TRANSPORTER ATP BINDING CASSETTE PROTEIN TYPE 1 (AB-CA1) AND THERAPEUTIC USES THEREOF” (RAMOT AT TEL-AVIV UNIVERSITY LTD., priority 2020, published 2023).

Legend:
apoE4 TR mice = test: Intraventricular Alzet pump administration to apoE4 TR mice, 11 days; type: in vivo; details: intraventricular pump 11 days, vs ACSF
Protocol: These experiments utilized the Alzet osmotic pump to administer labeled compounds #10 and N1 into the ventricles of apoE4 TR mice. The Alzet pumps administered 0.25 μl/hr of the compounds for 11 days. The reagents concentrations were […] for compounds #10 and N1, respectively, reaching estimated concentrations of 200 μM and 250 μM in the CSF. As control groups, apoE3 and apoE4 mice injected with artificial cerebrospinal fluid were used. Four groups, each containing 5 mice were used in the experiments. The total SDS levels in the different groups were measured. […] FIG. 16 depicts the results of the high molecular weight complexes indicating the increase in the apoE4 treated with compounds #10 and N1.
High AT180 corresponds to hyperphosphorylated tau which is pathological.

Human Astrocytes = test: Cholesterol efflux (apoE4 lipidation) assay, BODIPY-cholesterol translocation to apoE4; type: cell-based; details: Astrocyte, Human astrocytes, efflux to apoE4
Protocol: Cholesterol efflux assay in HTS. CCF-STTG1 cells were plated in 384-well plates containing 50 μL/well RPMI supplemented with 10% FBS at a density of 5×10^3 cells/well, using a Multidrop 384 Reagent Dispenser (Thermo Scientific), and incubated for 48 hr. Cells were washed twice with 50 μl PBS using an EL406 Microplate Washer Dispenser (BioTek, Winooski, Vt., USA) before being labeled with 50 μl of 10 μM BODIPY-cholesterol+100 μM cyclodextrin (CD) in RPMI 1640 medium containing 0.2% BSA. The labeling medium was added using in a Washer Dispenser II (GNF, San Diego, Calif., USA). Plates were transferred automatically to a Liconic incubator (Mauren Principality of Liechtenstein) and incubated for 24 h. Subsequently, cells were washed twice as described above to remove external cholesterol. Next, 50 μl of the efflux medium was added, which contained recombinant apoE4 at a concentration of 40 μg/ml in transparent RPMI 1640 (no phenol red), again using Washer Dispenser II (GNF, San Diego, Calif., USA). The positive control contained the ABCA1 activator, CS-6253 (120 μg/ml) in addition to the acceptor (apoE4). After 7 hr of efflux, the medium was transferred to new plates, using the Bravo Automated Liquid Handling system (Agilent, Santa Clara, Calif., USA). Fluorescence polarization (FP) and fluorescence intensity (FI) of the medium were measured in a PheraStar FS plate reader (BMG Labtech, Ortenberg, Germany).
The apoE4 lipidation Assay is based on measurements of the ability of astrocytes to translocate fluorescently labelled cholesterol to recombinant non lipidated apoE4 and on the extent to which this effect is enhanced by treatment with each of the screened compounds (FIG. 2, 3). This assay is an adaptation of previous studies of cholesterol translocation from labelled astrocytes to external acceptors such as apoE4 [16], except that in order to differentiate between gene expression related effects and direct biochemical effects of the hits on ABCA1, the incubations of the HTS with the cells was limited to 8 hours. The extent to which the cells secret the labelled cholesterol and transfer it to non-lipidated apoE4 was determined by regular fluorescence as well as by fluorescence polarization microscopy. The latter technique in this context is used due to its sensitivity to particle size which decreases the background signal by differentiating between free and particle bound released cholesterol.
The assay was characterized biochemically and it was shown that translocation of labelled cholesterol to apoE4 is time and concentration dependent (FIG. 4) and was increased by the positive control ABCA1 agonistic 26mer peptide CS-6253 [4] (FIG. 5). The assay was used for high throughput screening (HTS) and selection of positive hits. 50,000 compounds from commercially available libraries were screened utilizing the double criteria of a signal greater than 3 standard deviations from the mean of all of the screened compounds, and being similar or greater than the apoE4 lipidation driven by the ABCA1 agonistic peptide CS-6253. Additional criteria included the tier drug ability value with tier 1 being best and tier 3 being least suitable, as well as a hydrophobicity value of 2<log P<5 value. This yielded 14 hits, designated Compounds #1-#14 (FIG. 6).

Rodent Astrocytes = test: In situ Aβ plaque digestion by apoE4 astrocytes (orthogonal assay); type: cell-based
Protocol: FIG. 7: Schematic representation of assay measuring in situ A$ plaque degradation by apoE3 and apoE4 astrocytes. The assay is designed to measure the ability of astrocytes to digest senile plaques from brain slides of APP mice, which is impaired in apoE4 expressing astrocytes.
FIG. 9: Activity of test compounds (HTS hits) in the plaque digestion assay. Positive control is CS-6253 (25 μg/ml). Test compound concentration is 50 μM.
In situ Aβ plaque degradation by apoE3 and apoE4 astrocytes. This assay is based on measurement of the ability of the astrocytes to clear Aβ plaques following their co-incubation with brain sections of 5×FAD mice, which contain Aβ plaques. Accordingly, 20 μm coronal frozen brain sections were prepared from 9-13-month-old 5×FAD mice using cryostat and placed on glass slides, 3-4 consecutive sections in each slide. The slides were kept at −80° C. until used. At the beginning of the experiment, the slices were incubated for 48 hr at 37° C. with apoE3 and apoE4 astrocytes (10^5 cells in 100 μl medium per slice) in the presence of 50 μM, or otherwise indicated concentrations, of the HTS hits. The slides were gently placed in round petri dishes with thick wet paper, surrounding the slides. PapPen was used to draw liquid repellent borders of the sections to avoid spillage of coating out of the slides. The slides were gently washed of all containing remains by placing them in PBS for 10 minutes, and were then fixated with 4% PFA for 10 minutes, followed by 0.1% Triton solution for 10 minutes. The slides were then incubated with blocking solution (8% Horse Serum, 0.3% Triton, 1 gr/ml BSA, 0.02% Sodium Azide in PBS) for 30 minutes after which they were immunohistochemically stained with primary anti-PAmyloid (6E10) antibody at a dilution of 1:750 in blocking solution for 1 hr at room temperature. This was then followed by washing (×5 with PBST) and incubation with the secondary antibody (Alexa Fluor® 488 donkey α-mouse IgG, A-21202 at dilution of 1:250 at room temperature for 45 minutes. Nuclei were stained with DAPI (Vektashield, Burlingame, Calif.; H-1200). Analysis of the Aβ plaque burden was performed as percentage of the area covered in plaques using the ImageJ software.
(i) Orthogonal assay which monitors the extent to which the hits can reverse the impaired ability of apoE4 astrocytes to digest Aβ senile plaques in vitro. The principle of this orthogonal assay is presented in FIGS. 7 & 8 [17], whereas the activity of the HTS hits in this assay is presented in FIG. 9.

[1] = tested on: apoE4 astrocytic cell line; test: Cellular viability / cytotoxicity of the hits; type: cell-based, Rodent; details: 50 μM
Protocol: FIG. 10: Effects of test compounds (HTS hits) on cellular viability. Experiments were performed on apoE4 astrocytic cell line in the presence of 50 μM of the indicated compounds. Viability was measured microscopically and by measurements of total cellular protein. (ii) Measurements of cytotoxicity of the hits.

ECD1 of ABCA1 = target: T1, ECD1 of ABCA1 (Homo sapiens, UniProt O95477); test: Microscale thermophoresis (MST) binding, label free protein; details: unlabelled ECD1
T1 construct: The proteins used in these experiments were Extra-Cellular Domain 1 (ECD1) of ABCA1 and Extra-Cellular Domain 2 (ECD2); purchased Biomatick
T1 sequence (O95477 43-639 limits assumed): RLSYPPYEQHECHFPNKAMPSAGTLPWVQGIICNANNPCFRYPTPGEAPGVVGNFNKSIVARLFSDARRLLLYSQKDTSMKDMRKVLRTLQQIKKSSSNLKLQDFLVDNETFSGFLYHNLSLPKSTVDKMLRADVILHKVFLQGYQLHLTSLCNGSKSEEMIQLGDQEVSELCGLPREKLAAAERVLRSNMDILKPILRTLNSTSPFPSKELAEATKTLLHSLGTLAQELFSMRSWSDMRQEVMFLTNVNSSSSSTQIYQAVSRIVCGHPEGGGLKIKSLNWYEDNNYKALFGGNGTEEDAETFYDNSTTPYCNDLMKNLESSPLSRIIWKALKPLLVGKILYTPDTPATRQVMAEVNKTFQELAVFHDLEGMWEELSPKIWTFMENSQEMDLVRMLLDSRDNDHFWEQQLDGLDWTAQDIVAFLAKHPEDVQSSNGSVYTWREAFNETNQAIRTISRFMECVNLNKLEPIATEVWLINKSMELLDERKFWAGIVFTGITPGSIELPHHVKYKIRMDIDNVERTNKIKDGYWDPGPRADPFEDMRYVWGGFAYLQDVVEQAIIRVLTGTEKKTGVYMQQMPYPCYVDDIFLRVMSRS
Protocol: Microscale thermophoresis (MST) measurements. MST measurements of the binding of the HTS hits to the extracellular domain (ECD) of ABCA1 were performed by two complimentary methods utilizing either fluorescently labeled proteins or the endogenous fluorescence of unlabeled proteins. This was pursued as follows:
The experiments were performed with the purified extracellual domains 1 (ECD1) and 2 (ECD2) of ABCA1 [18]. Two complementary MST tests were performed, in which either the proteins were labeled with a fluorescence moiety or the endogenous fluorescence of the unlabeled proteins was monitored).

Compound	Hippocampal phosphorylated tau (AT180) (apoE4 TR mice)	Levels of high molecular weight lipidated ApoE4 (native gels) (apoE4 TR mice)	Total hippocampal ApoE4 levels (total SDS levels) (apoE4 TR mice)	EC50 (Human Astrocytes; Table 2) [µM]	EC50 (Human Astrocytes; Table 4) [µM]	Plaque digestion assay (50 μM) Rodent Astrocytes (Rodent Astrocytes; Table 2) [%]	Plaque digestion assay (50 μM) Rodent Astrocytes (Rodent Astrocytes; Table 4) [%]	Viability Rodent Astrocytes ([1]; Table 2)	Viability Rodent Astrocytes ([1]; Table 4)	Binding to ECD1 (Label free MST) Amplitude (ECD1 of ABCA1) [a.u.]	Kd (ECD1 of ABCA1) [µM]
O=C(O)CSc1cc(Cl)c2nonc2c1[N+](=O)[O-] [Hit N1]	reversed the pathology	increase	reversed the effect	–	–	–	–	–	–	–	–
Cc1cc(C)c(/C=C2\C(=O)Nc3ccccc32)[nH]1 [Hit #10]	reversed the pathology	increase	reversed the effect	> 44.8	> 44.8	182	182	Normal	Normal	–	–
Clc1cc(N2CCOCC2)c2nonc2c1 [Hit #99]	–	–	–	–	> 44.8	–	–	–	–	24.15	59
